Source: patent publication US20190211020A1 (Agency for Science, Technology and Research, priority 2012, published 2019)

Each molecule was assayed on eIF4E Ser209 phosphorylation in Hela cells (assay: MNK cell-based assay (AlphaScreen SureFire, eIF4E Ser209 phosphorylation)). Details: Homo sapiens, HeLa, 2 h, read-out: IC50 Hela.
Excerpt: It has been reported that Ser209 of eIF4E is solely phosphorylated by the MNK enzymes. The ability of compounds to inhibit this process in Hela cells was investigated using the AlphaScreen SureFire® assay platform from Perkin Elmer (Waltham, Mass.). eIF4E phosphorylated on Ser209 is recognized by two antibodies, the first which is fused to a streptavidin coated donor bead binds to an epitope away from Ser209, the second which is fused to a protein A conjugated acceptor bead binds to phosphorylated Ser209. The phosphorylation of eIF4E on Ser209 brings the two antibodies into close proximity and when excited by a laser a singlet oxygen is released by the donor bead which excites the acceptor bead resulting in the emission of light. This enables the monitoring of eIF4E Ser209 phosphorylation and its inhibition in a cellular context.
Hela cells were seeded into microtitre plates (30,000 cells per well) in 100 μl of culture medium and incubated at 37° C. for 24 hours. The media was then removed by aspiration and the cells resuspended in 50 μl of serum free medium containing the test compound and incubated at 37° C. for 2 hours. The culture medium was again removed by aspiration and the cells resuspended in lysis buffer (provided in Perkin Elmer SureFire® Assay Kit). After agitation at 350 rpm for 20 minutes at 22° C., 4 μl was transferred to a 384 well OptiPlate™ (Perkin Elmer, Waltham, Mass.). To each well was added 5 μl of acceptor mix; the plate was sealed and agitated gently at 22° C. for 2 hours. Then, in subdued light, 2 μl of donor mix was added to each well, the plate was sealed, wrapped in aluminum foil and agitated gently at 22° C. for 2 hours. Emission was measured using the EnVision® plate reader (Perkin Elmer, Waltham, Mass.).
Inhibition constants (IC50) were determined by plotting AlphaScreen signal versus log compound concentration and fitting with a non-linear regression algorithm using GraphPad Prism (GraphPad Software Inc.).
For `Cc1cc2ncc(-c3ccc(C#N)cc3)n2cc1-c1ccc(C(=O)N2CCC(C)(N)CC2)cc1` [Example 137, 4-(6-(4-(4-amino-4-methylpiperidine-1-carbonyl)phenyl)-7-methylimidazo[1,2-a]pyridin-3-yl)benzonitrile], the IC50 was under 1000 nM.

Same assay, conditions: Homo sapiens; eIF4E Ser209 phosphorylation, Hela cells, 2 hours; read-out: IC50 Hela
Molecule `N#Cc1ccc(-c2cnc3ccc(-c4ccc(C(=O)NCC(=O)N5CCOCC5)cc4)cn23)cc1` [Example 115, 4-(3-(4-cyanophenyl)imidazo[1,2-a]pyridin-6-yl)-N-(2-morpholino-2-oxoethyl)benzamide] has an IC50 of under 1000 nM. In the case of `N#Cc1ccc(-c2cnc3ccc(-c4ccc(C(=O)NCCN5CCOCC5)cc4)cn23)cc1` [Example 116, 4-(3-(4-cyanophenyl)imidazo[1,2-a]pyridin-6-yl)-N-(2-morpholinoethyl)benzamide], the IC50 is reported as under 1000 nM. `N#Cc1ccc(-c2cnc3ccc(-c4ccc(C(=O)N5CCC6(CCCCN6)CC5)cc4)cn23)cc1` [Example 117, 4-(6-(4-(1,9-diazaspiro[5.5]undecane-9-carbonyl)phenyl)imidazo[1,2-a]pyridin-3-yl)benzonitrile] gave an IC50 of under 1000 nM. For `CC(=O)N1CCCCC12CCN(C(=O)c1ccc(-c3ccc4ncc(-c5ccc(C#N)cc5)n4c3)cc1)CC2` [Example 118, 4-(6-(4-(1-acetyl-1,9-diazaspiro[5.5]undecane-9-carbonyl)phenyl)imidazo[1,2-a]pyridin-3-yl)benzonitrile], the IC50 was under 1000 nM. `CN1CCCCC12CCN(C(=O)c1ccc(-c3ccc4ncc(-c5ccc(C#N)cc5)n4c3)cc1)CC2` [Example 119, 4-(6-(4-(1-methyl-1,9-diazaspiro [5.5]undecane-9-carbonyl)phenyl)imidazo[1,2-a]pyridin-3-yl)benzonitrile] gave an IC50 of under 1000 nM. Molecule `CN(C(=O)c1ccc(-c2ccc3ncc(-c4ccc(C#N)cc4)n3c2)cc1)c1ccncc1` [Example 122, 4-(3-(4-cyanophenyl)imidazo[1,2-a]pyridin-6-yl)-N-methyl-N-(pyridin-4-yl)benzamide] has an IC50 of under 1000 nM. `N#Cc1ccc(-c2cnc3ccc(-c4ccc(C(=O)N5CCC(CN)CC5)cc4)cn23)cc1` [Example 123, 4-(6-(4-(4-(aminomethyl)piperidine-1-carbonyl)phenyl)imidazo[1,2-a]pyridin-3-yl)benzonitrile] showed an IC50 of under 1000 nM. `N#Cc1ccc(-c2cnc3ccc(-c4ccc(C(=O)N5CCC(CCN)CC5)cc4)cn23)cc1` [Example 124, 4-(6-(4-(4-(2-aminoethyl)piperidine-1-carbonyl)phenyl)imidazo[1,2-a]pyridin-3-yl)benzonitrile] was tested, and the IC50 was under 1000 nM. Work on `N#Cc1ccc(-c2cnc3ccc(-c4ccc(C(=O)N5CCN(C(=O)c6ccccc6)CC5)cc4)cn23)cc1` [Example 126, 4-(6-(4-(4-benzoylpiperazine-1-carbonyl)phenyl)imidazo[1,2-a]pyridin-3-yl)benzonitrile] yielded an IC50 of under 1000 nM. `N#Cc1ccc(-c2cnc3ccc(-c4ccc(C(=O)N5CCN(Cc6ccc(C(N)=O)cc6)CC5)cc4)cn23)cc1` [Example 129, 4-((4-(4-(3-(4-cyanophenyl)imidazo[1,2-a]pyridin-6-yl)benzoyl)piperazin-1-yl)methyl)benzamide] gave an IC50 of under 1000 nM. For `CN1CCN(C(=O)c2ccc(-c3ccc4ncc(-c5ccc(C#N)cc5)n4c3)cc2)CC1=O` [Example 130, 4-(6-(4-(4-methyl-3-oxopiperazine-1-carbonyl)phenyl)imidazo[1,2-a]pyridin-3-yl)benzonitrile], the IC50 was under 1000 nM. Work on `N#Cc1ccc(-c2cnc3ccc(-c4ccc(C(=O)N5CCC(N6CCOCC6)CC5)cc4)cn23)cc1` [Example 134, 4-(6-(4-(4-morpholinopiperidine-1-carbonyl)phenyl)imidazo[1,2-a]pyridin-3-yl)benzonitrile] yielded an IC50 of under 1000 nM. `Cc1nnc(C2(C)CCN(C(=O)c3ccc(-c4ccc5ncc(-c6ccc(C#N)cc6)n5c4)cc3)CC2)o1` [Example 135, 4-(6-(4-(4-methyl-4-(5-methyl-1,3,4-oxadiazol-2-yl)piperidine-1-carbonyl)phenyl)imidazo [1,2-a]pyridin-3-yl)benzonitrile] showed an IC50 of under 1000 nM. With `Cc1cc2ncc(-c3ccc(C#N)cc3)n2cc1-c1ccc(C(=O)N2CCN(C)CC2)cc1` [Example 138, 4-(7-methyl-6-(4-(4-methylpiperazine-1-carbonyl)phenyl)imidazo[1,2-a]pyridin-3-yl)benzonitrile] the IC50 was under 1000 nM. In the case of `CN1CCN(C(=O)c2ccc(-c3ccc4ncc(-c5ccc(C#N)cc5)n4c3)c(F)c2)CC1` [Example 140, 4-(6-(2-fluoro-4-(4-methylpiperazine-1-carbonyl)phenyl)imidazo [1,2-a]pyridin-3-yl)benzonitrile], the IC50 is reported as under 1000 nM. `CN1CCN(C(=O)c2ccc(-c3ccc4ncc(-c5ccc(C#N)cc5)n4c3)cc2Cl)CC1` [Example 141, 4-(6-(3-chloro-4-(4-methylpiperazine-1-carbonyl)phenyl)imidazo[1,2-a]pyridin-3-yl)benzonitrile] was tested, and the IC50 was under 1000 nM. `CN1CCN(C(=O)c2ccc(-c3ccc4ncc(-c5ccc(C#N)cc5)n4c3)cc2F)CC1` [Example 142, 4-(6-(3-fluoro-4-(4-methylpiperazine-1-carbonyl)phenyl)imidazo[1,2-a]pyridin-3-yl)benzonitrile] was tested, and the IC50 was under 1000 nM. `CN1CCN(C(=O)c2ccc(-c3ccc4ncc(-c5ccc(C#N)cc5)n4c3)cc2C(F)(F)F)CC1` [Example 145, 4-(6-(4-(4-methylpiperazine-1-carbonyl)-3-(trifluoromethyl)phenyl)imidazo[1,2-a]pyridin-3-yl)benzonitrile] was tested, and the IC50 was under 1000 nM. Molecule `CN1CCN(C(=O)c2ccc(-c3ccc4ncc(-c5ccc(C#N)cc5)n4c3)cc2N)CC1` [Example 146, 4-(6-(3-amino-4-(4-methylpiperazine-1-carbonyl)phenyl)imidazo [1,2-a]pyridin-3-yl)benzonitrile] has an IC50 of under 1000 nM. In the case of `CN1CCN(C(=O)c2ccc(-c3ccc4ncc(-c5ccc(C#N)cc5)n4c3)cc2N(C)C)CC1` [Example 147, 4-(6-(3-(dimethylamino)-4-(4-methylpiperazine-1-carbonyl)phenyl)imidazo[1,2-a]pyridin-3-yl)benzonitrile], the IC50 is reported as under 1000 nM. `CC(=O)Nc1cc(-c2ccc3ncc(-c4ccc(C#N)cc4)n3c2)ccc1C(=O)N1CCN(C)CC1` [Example 149, N-(5-(3-(4-cyanophenyl)imidazo[1,2-a]pyridin-6-yl)-2-(4-methylpiperazine-1-carbonyl)phenyl)acetamide] showed an IC50 of under 1000 nM. `CNc1cc(-c2ccc3ncc(-c4ccc(C#N)cc4)n3c2)ccc1C(=O)N1CCN(C)CC1` [Example 150, 4-(6-(3-(methylamino)-4-(4-methylpiperazine-1-carbonyl)phenyl)imidazo [1,2-a]pyridin-3-yl)benzonitrile] was tested, and the IC50 was under 1000 nM. `CNc1cc(-c2ccc3ncc(-c4ccc(C#N)cc4)n3c2)ccc1C(=O)N1CCOCC1` [Example 151, 4-(6-(3-(methylamino)-4-(morpholine-4-carbonyl)phenyl)imidazo[1,2-a]pyridin-3-yl)benzonitrile] gave an IC50 of under 1000 nM. Molecule `CN1CCN(C(=O)c2ccc(-c3ccc4ncc(-c5ccc(C#N)cc5)n4c3)c(Cl)c2)CC1` [Example 153] has an IC50 of under 1000 nM. In the case of `Cc1cc(-c2ccc3ncc(-c4ccc(C#N)cc4)n3c2)ccc1C(=O)N1CCOCC1` [Example 156], the IC50 is reported as under 1000 nM. Molecule `CN1CCN(C(=O)c2ccc(-c3ccc4ncc(-c5ccc(C#N)cc5)n4c3)cc2OC(F)(F)F)CC1` [Example 157] has an IC50 of under 1000 nM. For `COc1cc(-c2ccc3ncc(-c4ccc(C#N)cc4)n3c2)ccc1C(=O)N1CCOCC1` [Example 158], the IC50 was under 1000 nM. For `N#Cc1ccc(-c2cnc3ccc(-c4ccc(C(=O)N5CCNCC5)c(O)c4)cn23)cc1` [Example 159, 4-(6-(3-hydroxy-4-(piperazine-1-carbonyl)phenyl)imidazo[1,2-a]pyridin-3-yl)benzonitrile], the IC50 was under 1000 nM. With `N#Cc1ccc(-c2cnc3ccc(-c4ccc(C(=O)N5CCOCC5)c(N5CCOCC5)c4)cn23)cc1` [Example 160, 4-(6-[3-(morpholin-4-yl)-4-(morpholin-4-ylcarbonyl)phenyl]imidazo[1,2-a]pyridin-3-yl)benzonitrile] the IC50 was under 1000 nM. For `N#Cc1ccc(-c2cnc3ccc(-c4ccc(C(=O)N5CCOCC5)c(F)c4)cn23)cc1` [Example 162, 4-(6-(3-fluoro-4-(morpholine-4-carbonyl)phenyl)imidazo [1,2-a]pyridin-3-yl)benzonitrile], the IC50 was under 1000 nM. `CC1(N2CCOCC2)CCN(C(=O)c2ccc(-c3ccc4ncc(-c5ccc(C#N)cc5)n4c3)cc2)CC1` [Example 163, 4-(6-(4-(4-methyl-4-morpholinopiperidine-1-carbonyl)phenyl)imidazo [1,2-a]pyridin-3-yl)benzonitrile] showed an IC50 of under 1000 nM.

Same assay, conditions: eIF4E Ser209 phosphorylation, Hela cells, 2 hours; read-out: IC50 Hela
In the case of `CN1CCN(C(=O)c2ccc(-c3ccc4ncc(-c5ccc(C#N)cc5)n4c3)cc2O)CC1` [Example 143], the IC50 is reported as under 1000 nM. `CN1CCN(C(=O)c2ccc(-c3ccc4ncc(-c5ccc(C#N)cc5)n4c3)c(O)c2)CC1` [Example 144] gave an IC50 of under 1000 nM.
